This is an account of results in the supplement of paper PMC6411743.

Compound in the experiment: Nc1ncnc2c1ncn2[C@@H]1O[C@H](COP(=O)(O)OP(=O)(O)OP(=O)(O)O)[C@@H](O)[C@H]1O [adenosine triphosphate]
The experiment in a line: pEC50 of ATP-induced change in protein thermal stability (2D-TPP). In short, it runs like this: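 Crude Jurkat lysate was exposed to five concentrations, vehicle among them, for 10 min at room temperature, then heated for 3 min at 12 temperatures between 42 and 63.9 °C and treated with NP40 and benzonase for 60 min at 4 °C. Soluble protein remaining after ultracentrifugation was measured by TMT LC-MS/MS, and fold changes relative to vehicle at each temperature were median-normalised. pEC50 values come from dose-response fits made per replicate across adjacent temperature pairs, with hits called under permutation-based false discovery rate control. Three independent experiments were run.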

The pEC50 is the EC50 on a negative log10 scale, so that one unit is a factor of ten.
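Also: lysate dosed with Na-ATP at 0 0.005 0.05 0.5 and 2 mM.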

Chain of UniProt Q9UJ41 (Q9UJ41 whole entry): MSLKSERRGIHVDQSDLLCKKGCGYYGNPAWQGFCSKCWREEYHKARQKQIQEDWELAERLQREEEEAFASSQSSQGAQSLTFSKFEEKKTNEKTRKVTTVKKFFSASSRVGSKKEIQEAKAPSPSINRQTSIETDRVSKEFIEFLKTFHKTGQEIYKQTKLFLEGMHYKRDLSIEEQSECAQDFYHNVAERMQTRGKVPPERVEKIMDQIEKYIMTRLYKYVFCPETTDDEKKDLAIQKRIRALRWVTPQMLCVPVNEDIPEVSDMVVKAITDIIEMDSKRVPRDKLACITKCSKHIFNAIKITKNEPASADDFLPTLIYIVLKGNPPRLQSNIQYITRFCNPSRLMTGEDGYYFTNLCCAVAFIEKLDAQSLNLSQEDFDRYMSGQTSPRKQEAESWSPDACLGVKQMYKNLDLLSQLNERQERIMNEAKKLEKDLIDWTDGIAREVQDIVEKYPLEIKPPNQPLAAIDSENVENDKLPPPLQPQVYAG
Chain of UniProt Q9Y478 (Q9Y478 whole entry): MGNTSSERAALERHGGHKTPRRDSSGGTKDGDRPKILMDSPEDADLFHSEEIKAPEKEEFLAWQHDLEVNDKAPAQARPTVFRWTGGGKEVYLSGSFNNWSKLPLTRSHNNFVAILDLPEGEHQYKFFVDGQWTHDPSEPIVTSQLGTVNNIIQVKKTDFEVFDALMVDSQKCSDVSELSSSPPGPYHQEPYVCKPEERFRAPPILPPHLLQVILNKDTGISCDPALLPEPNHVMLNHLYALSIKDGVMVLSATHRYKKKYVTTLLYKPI
Chain of UniProt P42785 (P42785 whole entry): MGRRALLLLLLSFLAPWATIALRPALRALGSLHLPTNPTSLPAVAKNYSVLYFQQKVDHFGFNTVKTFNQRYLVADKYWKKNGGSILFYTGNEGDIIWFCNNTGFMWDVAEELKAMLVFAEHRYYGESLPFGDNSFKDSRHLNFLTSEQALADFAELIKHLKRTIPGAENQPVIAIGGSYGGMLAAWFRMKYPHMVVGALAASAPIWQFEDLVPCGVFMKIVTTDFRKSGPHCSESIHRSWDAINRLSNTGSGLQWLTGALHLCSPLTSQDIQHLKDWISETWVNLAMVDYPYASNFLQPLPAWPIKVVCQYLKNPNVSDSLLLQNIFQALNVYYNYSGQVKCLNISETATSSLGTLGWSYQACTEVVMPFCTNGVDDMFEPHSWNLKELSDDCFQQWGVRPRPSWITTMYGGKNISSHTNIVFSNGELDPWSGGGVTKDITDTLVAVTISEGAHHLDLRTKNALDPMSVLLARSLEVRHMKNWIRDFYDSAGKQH
Chain of UniProt Q5VTR2 (Q5VTR2 whole entry): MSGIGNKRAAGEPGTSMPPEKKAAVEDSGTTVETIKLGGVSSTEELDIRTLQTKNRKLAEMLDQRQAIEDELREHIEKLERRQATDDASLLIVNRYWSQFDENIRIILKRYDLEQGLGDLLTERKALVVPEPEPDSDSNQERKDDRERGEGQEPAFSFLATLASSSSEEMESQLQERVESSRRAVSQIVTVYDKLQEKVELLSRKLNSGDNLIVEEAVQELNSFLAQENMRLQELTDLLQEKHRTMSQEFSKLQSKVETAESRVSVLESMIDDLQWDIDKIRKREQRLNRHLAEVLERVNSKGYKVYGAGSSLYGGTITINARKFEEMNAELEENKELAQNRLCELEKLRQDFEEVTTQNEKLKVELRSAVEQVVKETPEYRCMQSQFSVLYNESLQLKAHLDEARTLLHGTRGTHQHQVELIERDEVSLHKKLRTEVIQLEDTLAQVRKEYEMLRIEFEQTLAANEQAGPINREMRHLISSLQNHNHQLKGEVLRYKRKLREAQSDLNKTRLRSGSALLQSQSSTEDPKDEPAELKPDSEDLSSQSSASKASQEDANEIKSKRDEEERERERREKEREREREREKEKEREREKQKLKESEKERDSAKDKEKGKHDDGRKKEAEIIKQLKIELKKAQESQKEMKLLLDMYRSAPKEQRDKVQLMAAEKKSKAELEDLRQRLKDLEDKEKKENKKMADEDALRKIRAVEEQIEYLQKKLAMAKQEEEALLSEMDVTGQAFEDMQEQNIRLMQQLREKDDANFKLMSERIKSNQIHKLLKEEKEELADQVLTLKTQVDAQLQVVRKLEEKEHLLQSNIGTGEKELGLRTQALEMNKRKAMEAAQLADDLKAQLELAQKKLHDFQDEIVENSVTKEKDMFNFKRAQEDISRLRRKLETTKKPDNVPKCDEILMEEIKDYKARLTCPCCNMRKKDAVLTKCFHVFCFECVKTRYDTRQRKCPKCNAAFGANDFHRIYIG
Chain of UniProt O43502 (O43502 whole entry): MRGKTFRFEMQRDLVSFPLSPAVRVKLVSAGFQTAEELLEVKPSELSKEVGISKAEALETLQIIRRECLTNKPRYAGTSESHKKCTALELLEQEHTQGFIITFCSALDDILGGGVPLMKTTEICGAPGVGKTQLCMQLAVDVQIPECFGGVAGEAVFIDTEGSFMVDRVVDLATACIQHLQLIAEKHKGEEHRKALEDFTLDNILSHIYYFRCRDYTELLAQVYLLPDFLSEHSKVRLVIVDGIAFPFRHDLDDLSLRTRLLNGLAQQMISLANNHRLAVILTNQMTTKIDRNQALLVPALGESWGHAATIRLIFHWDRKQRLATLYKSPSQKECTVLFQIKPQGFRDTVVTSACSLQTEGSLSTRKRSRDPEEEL
Chain of UniProt P48454 (P48454 whole entry): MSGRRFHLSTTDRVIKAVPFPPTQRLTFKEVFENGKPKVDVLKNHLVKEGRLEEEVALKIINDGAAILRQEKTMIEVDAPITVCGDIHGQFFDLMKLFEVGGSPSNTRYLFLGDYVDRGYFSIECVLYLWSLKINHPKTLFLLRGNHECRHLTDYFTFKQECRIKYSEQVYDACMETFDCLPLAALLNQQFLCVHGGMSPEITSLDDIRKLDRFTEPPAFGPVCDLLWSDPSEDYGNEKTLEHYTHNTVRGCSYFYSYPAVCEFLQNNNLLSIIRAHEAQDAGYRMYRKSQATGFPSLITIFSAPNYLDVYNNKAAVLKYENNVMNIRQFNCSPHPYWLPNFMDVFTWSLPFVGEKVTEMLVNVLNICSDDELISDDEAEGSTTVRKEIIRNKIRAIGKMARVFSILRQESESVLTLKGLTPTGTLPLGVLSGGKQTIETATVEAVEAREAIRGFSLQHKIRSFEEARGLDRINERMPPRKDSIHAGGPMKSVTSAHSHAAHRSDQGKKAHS
Chain of UniProt Q9BRS2 (Q9BRS2 whole entry): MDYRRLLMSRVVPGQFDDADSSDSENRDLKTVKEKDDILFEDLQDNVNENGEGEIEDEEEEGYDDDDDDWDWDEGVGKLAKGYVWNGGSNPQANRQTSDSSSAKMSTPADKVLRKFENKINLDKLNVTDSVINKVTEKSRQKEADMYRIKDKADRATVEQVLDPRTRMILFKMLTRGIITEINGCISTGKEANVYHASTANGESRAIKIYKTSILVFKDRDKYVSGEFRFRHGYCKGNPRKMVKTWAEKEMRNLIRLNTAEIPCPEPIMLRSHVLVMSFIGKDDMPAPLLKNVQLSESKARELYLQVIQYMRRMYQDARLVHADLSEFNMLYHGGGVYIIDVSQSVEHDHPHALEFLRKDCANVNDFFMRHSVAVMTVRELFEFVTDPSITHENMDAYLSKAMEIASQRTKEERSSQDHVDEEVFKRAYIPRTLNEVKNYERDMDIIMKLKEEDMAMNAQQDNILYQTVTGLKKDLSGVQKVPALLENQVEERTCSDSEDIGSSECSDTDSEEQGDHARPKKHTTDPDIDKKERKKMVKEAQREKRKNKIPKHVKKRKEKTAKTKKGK
Chain of UniProt P27694 (P27694 whole entry): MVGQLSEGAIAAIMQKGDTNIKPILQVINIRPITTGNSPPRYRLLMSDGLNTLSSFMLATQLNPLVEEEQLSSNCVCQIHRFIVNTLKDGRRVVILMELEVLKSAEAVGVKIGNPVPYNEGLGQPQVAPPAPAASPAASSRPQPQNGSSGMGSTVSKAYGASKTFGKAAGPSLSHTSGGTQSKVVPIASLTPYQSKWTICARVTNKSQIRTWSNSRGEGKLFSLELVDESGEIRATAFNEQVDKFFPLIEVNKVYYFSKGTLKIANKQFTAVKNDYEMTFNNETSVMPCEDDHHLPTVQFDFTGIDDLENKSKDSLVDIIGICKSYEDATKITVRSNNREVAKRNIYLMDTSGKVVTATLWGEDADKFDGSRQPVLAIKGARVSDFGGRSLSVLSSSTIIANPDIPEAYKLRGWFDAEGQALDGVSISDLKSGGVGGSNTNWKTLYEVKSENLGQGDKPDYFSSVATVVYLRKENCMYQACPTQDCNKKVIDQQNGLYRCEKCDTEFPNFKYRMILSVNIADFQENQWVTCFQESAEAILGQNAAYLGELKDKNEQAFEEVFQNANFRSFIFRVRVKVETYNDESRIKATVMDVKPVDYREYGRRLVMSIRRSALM
Chain of UniProt P46060 (P46060 whole entry): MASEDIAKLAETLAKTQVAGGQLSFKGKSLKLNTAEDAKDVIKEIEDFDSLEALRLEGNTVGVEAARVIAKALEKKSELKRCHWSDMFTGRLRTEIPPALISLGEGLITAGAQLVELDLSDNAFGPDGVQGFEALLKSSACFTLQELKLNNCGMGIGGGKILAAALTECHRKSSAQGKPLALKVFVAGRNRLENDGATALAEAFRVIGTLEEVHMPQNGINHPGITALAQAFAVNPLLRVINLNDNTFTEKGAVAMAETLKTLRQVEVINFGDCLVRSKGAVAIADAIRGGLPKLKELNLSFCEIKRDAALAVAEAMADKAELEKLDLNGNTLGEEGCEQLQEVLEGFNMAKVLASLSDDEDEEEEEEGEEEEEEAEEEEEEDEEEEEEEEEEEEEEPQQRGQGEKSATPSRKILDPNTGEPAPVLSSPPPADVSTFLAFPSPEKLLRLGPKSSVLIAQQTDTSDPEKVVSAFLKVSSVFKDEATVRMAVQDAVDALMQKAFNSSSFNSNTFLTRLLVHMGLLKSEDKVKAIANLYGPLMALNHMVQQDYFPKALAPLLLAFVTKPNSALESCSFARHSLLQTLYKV

Consider “PPP3CB (effect direction: destabilized) (UniProt P16298)”, for which the pEC50 is 3.06.

On to “PPP3CC (effect direction: destabilized) (UniProt P48454)”, for which the pEC50 was found to be 2.92.

For the target “PPT1 (effect direction: stabilized) (UniProt P50897)”, the pEC50 came to 3.3.

Regarding “PRCP (effect direction: stabilized) (UniProt P42785)”, the pEC50 came to 2.94.

Turning to “PRDX6 (effect direction: stabilized) (UniProt P30041)”, the pEC50 was below 2.7.

For the target “PRKAB1 (effect direction: stabilized) (UniProt Q9Y478)”, the pEC50 is 3.22.

Take “PRKACB (effect direction: stabilized) (UniProt P22694)”: the pEC50 turned out to be 3.91.

Take “PRKAG1 (effect direction: stabilized) (UniProt P54619)”: the pEC50 is 3.27.

“PRKAR1B (effect direction: stabilized) (UniProt P31321)”: the pEC50 came out at 3.85.

Take “PRKAR2A (effect direction: stabilized) (UniProt P13861)”: the pEC50 turned out to be 4.03.

With “PRKCH (effect direction: stabilized) (UniProt P24723)”, the pEC50 worked out at 3.5.

For the target “PRKRIP1 (effect direction: destabilized) (UniProt Q9H875)”, the pEC50 was 2.81.

Turning to “PRPF4B (effect direction: stabilized) (UniProt Q13523)”, the pEC50 turned out to be 3.18.

With “PRPS2 (effect direction: stabilized) (UniProt P11908)”, the pEC50 stood at 3.33.

In the case of “PSMC2 (effect direction: stabilized) (UniProt P35998)”, the pEC50 came to 4.28.

Turning to “PSMC3 (effect direction: stabilized) (UniProt P17980)”, the pEC50 was determined as 4.02.

Take “PSMC4 (effect direction: stabilized) (UniProt P43686)”: the pEC50 turned out to be 4.09.

For the target “PSMD1 (effect direction: stabilized) (UniProt Q99460)”, the pEC50 was 4.35.

For “PSMD2 (effect direction: stabilized) (UniProt Q13200)”, the pEC50 came out at 3.96.

For the target “PSMD3 (effect direction: stabilized) (UniProt O43242)”, the pEC50 stood at 4.24.

In the case of “PSMD4 (effect direction: stabilized) (UniProt P55036)”, the pEC50 was 3.77.

Regarding “PSMD5 (effect direction: stabilized) (UniProt Q16401)”, the pEC50 was found to be 3.99.

For “PSMD6 (effect direction: stabilized) (UniProt Q15008)”, the pEC50 was determined as 4.15.

On to “PSMD7 (effect direction: stabilized) (UniProt P51665)”, for which the pEC50 worked out at 4.16.

“PSMD8 (effect direction: stabilized) (UniProt P48556)”: the pEC50 amounted to 4.12.

As for “PSMD11 (effect direction: stabilized) (UniProt O00231)”, the pEC50 came to 4.08.

For “PSMD12 (effect direction: stabilized) (UniProt O00232)”, the pEC50 is 4.29.

For the target “PSMD13 (effect direction: stabilized) (UniProt Q9UNM6)”, the pEC50 came to 4.14.

For the target “PTAR1 (effect direction: stabilized) (UniProt Q7Z6K3)”, the pEC50 is below 2.7.

With “PTBP1 (effect direction: stabilized) (UniProt P26599)”, the pEC50 amounted to 3.15.

“PURA (effect direction: stabilized) (UniProt Q00577)”: the pEC50 was 3.13.

For “PURB (effect direction: stabilized) (UniProt Q96QR8)”, the pEC50 was below 2.7.

As for “PUS1 (effect direction: stabilized) (UniProt Q9Y606)”, the pEC50 is 2.99.

“PUS7 (effect direction: stabilized) (UniProt Q96PZ0)”: the pEC50 was below 2.7.

On to “Q5JWF2|P63092 (effect direction: stabilized) (UniProt P63092+Q5JWF2)”, for which the pEC50 was below 2.7.

Turning to “RAB3GAP2 (effect direction: stabilized) (UniProt Q9H2M9)”, the pEC50 was 5.16.

Consider “RABGAP1 (effect direction: stabilized) (UniProt Q9Y3P9)”, for which the pEC50 is below 2.7.

Take “RABGEF1 (effect direction: stabilized) (UniProt Q9UJ41)”: the pEC50 stood at 3.08.

For “RACGAP1 (effect direction: stabilized) (UniProt Q9H0H5)”, the pEC50 came to 3.69.

“RAD21 (effect direction: stabilized) (UniProt O60216)”: the pEC50 stood at 3.6.

Take “RAD51 (effect direction: stabilized) (UniProt Q06609)”: the pEC50 came out at 3.65.

In the case of “RAD51C (effect direction: stabilized) (UniProt O43502)”, the pEC50 worked out at 3.46.

Consider “RAD54L2 (effect direction: stabilized) (UniProt Q9Y4B4)”, for which the pEC50 was determined as 3.3.

For the target “RANGAP1 (effect direction: stabilized) (UniProt P46060)”, the pEC50 was below 2.7.

On to “RAP1GDS1 (effect direction: stabilized) (UniProt P52306)”, for which the pEC50 was below 2.7.

With “RAPGEF1 (effect direction: destabilized) (UniProt Q13905)”, the pEC50 is 2.88.

Regarding “RASSF5 (effect direction: stabilized) (UniProt Q8WWW0)”, the pEC50 came out at 3.13.

On to “RB1 (effect direction: stabilized) (UniProt P06400)”, for which the pEC50 was found to be 3.07.

For the target “RBM26 (effect direction: stabilized) (UniProt Q5T8P6)”, the pEC50 amounted to 3.67.

Take “RBMX (effect direction: destabilized) (UniProt P38159)”: the negative-log EC50 (pEC50) was below 2.7.

In the case of “RDH14 (effect direction: stabilized) (UniProt Q9HBH5)”, the pEC50 turned out to be 3.2.

“RELA (effect direction: stabilized) (UniProt Q04206)”: the pEC50 was below 2.7.

“RFK (effect direction: stabilized) (UniProt Q969G6)”: the pEC50 is 4.07.

With “RFX1 (effect direction: stabilized) (UniProt P22670)”, the pEC50 is below 2.7.

“RIOK1 (effect direction: stabilized) (UniProt Q9BRS2)”: the pEC50 was 3.11.

Take “RIOK3 (effect direction: stabilized) (UniProt O14730)”: the pEC50 stood at 3.7.

As to “RNASEH2C (effect direction: stabilized) (UniProt Q8TDP1)”, the pEC50 was determined as 2.76.

As to “RNF20 (effect direction: stabilized) (UniProt Q5VTR2)”, the pEC50 was below 2.7.

For the target “ROCK1 (effect direction: stabilized) (UniProt Q13464)”, the pEC50 was 2.77.

Consider “RPA1 (effect direction: stabilized) (UniProt P27694)”, for which the pEC50 was determined as 3.58.

With “RPL10 (effect direction: destabilized) (UniProt P27635)”, the pEC50 came out at 3.88.

Regarding “RPL10A (effect direction: destabilized) (UniProt P62906)”, the pEC50 is below 2.7.

As for “RPL13 (effect direction: destabilized) (UniProt P26373)”, the pEC50 was above 5.3.

For the target “RPL14 (effect direction: destabilized) (UniProt P50914)”, the pEC50 turned out to be 3.99.

With “RPL17 (effect direction: destabilized) (UniProt P18621)”, the pEC50 worked out at 3.27.

Consider “RPL18 (effect direction: destabilized) (UniProt Q07020)”, for which the negative logarithm of the EC50 (pEC50) was below 2.7.

“RPL27A (effect direction: destabilized) (UniProt P46776)”: the pEC50 worked out at 3.2.

“RPL28 (effect direction: destabilized) (UniProt P46779)”: the pEC50 came out at 4.17.

Turning to “RPL34 (effect direction: destabilized) (UniProt P49207)”, the pEC50 was determined as 4.92.

In the case of “RPN1 (effect direction: stabilized) (UniProt P04843)”, the pEC50 was below 2.7.

As to “RPS2 (effect direction: destabilized) (UniProt P15880)”, the pEC50 worked out at 3.82.

“RPS3 (effect direction: destabilized) (UniProt P23396)”: the pEC50 is below 2.7.

As to “RPS3A (effect direction: destabilized) (UniProt P61247)”, the pEC50 was found to be 3.86.

As to “RPS10 (effect direction: destabilized) (UniProt P46783)”, the pEC50 is below 2.7.

With “RPSA (effect direction: stabilized) (UniProt P08865)”, the pEC50 is below 2.7.

On to “RRP9 (effect direction: destabilized) (UniProt O43818)”, for which the pEC50 was 2.98.

For the target “RRP15 (effect direction: destabilized) (UniProt Q9Y3B9)”, the pEC50 amounted to 3.51.

Regarding “RSBN1L (effect direction: stabilized) (UniProt Q6PCB5)”, the pEC50 was found to be 3.21.

For “SACM1L (effect direction: stabilized) (UniProt Q9NTJ5)”, the pEC50 is 3.14.

Take “SAE1 (effect direction: stabilized) (UniProt Q9UBE0)”: the pEC50 was below 2.7.
